# Assay results reported in publication PMC9401864, “Cell‐Free Protein Synthesis for the Screening of Novel Azoreductases and Their Preferred Electron Donor” (Chembiochem, 2022).
# How the values were obtained:
# Format in all cases: biochemical
# PaerAzoR [1] = target: T1, PaerAzoR (Pseudomonas aeruginosa, UniProt Q9I5F3); assay: methyl red degradation at […] nm with BNAH as electron donor, reconstituted cell-free (PURE) mix; conditions: 30 uM methyl red; 150 uM BNAH; 50 uM FMN; 100 mM sodium phosphate pH 6; 25 °C
# T1 construct: gene azoR1; codon-optimised gene in pET-24a(+); cell-free synthesis (PUREfrex2.0), unpurified
# T1 sequence (Q9I5F3 1-212): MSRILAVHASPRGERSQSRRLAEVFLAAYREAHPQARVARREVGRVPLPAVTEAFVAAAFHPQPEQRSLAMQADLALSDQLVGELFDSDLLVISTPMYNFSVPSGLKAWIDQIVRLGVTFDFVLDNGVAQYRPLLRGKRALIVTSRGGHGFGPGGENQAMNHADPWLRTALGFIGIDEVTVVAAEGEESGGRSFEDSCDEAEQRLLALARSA
# StypAzoR [2] = target: T2, StypAzoR (Salmonella enterica, UniProt P63462); assay: Brilliant Black degradation at […] nm, reconstituted cell-free (PURE) mix; conditions: 150 uM NADH; 50 uM FMN; 100 mM sodium phosphate pH 6; 25 °C; 30 uM dye
# T2 construct: gene azoR; codon-optimised gene in pET-24a(+); cell-free synthesis (PUREfrex2.0), unpurified
# T2 sequence (P63462 2-201): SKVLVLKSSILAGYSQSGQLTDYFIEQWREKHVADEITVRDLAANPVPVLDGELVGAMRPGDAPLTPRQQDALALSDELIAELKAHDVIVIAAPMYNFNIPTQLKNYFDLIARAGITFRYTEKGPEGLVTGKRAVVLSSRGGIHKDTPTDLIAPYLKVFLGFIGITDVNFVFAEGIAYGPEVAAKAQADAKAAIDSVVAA
# RferAzoR [3] = target: T3, RferAzoR (Rhodoferax ferrireducens, UniProt Q220J4); assay: as above; conditions: 150 uM NADH; 50 uM FMN; 100 mM sodium phosphate pH 6; 25 °C; 30 uM dye
# T3 construct: gene azoR; codon-optimised gene in pET-24a(+); cell-free synthesis (PUREfrex2.0), unpurified
# T3 sequence (Q220J4 1-203): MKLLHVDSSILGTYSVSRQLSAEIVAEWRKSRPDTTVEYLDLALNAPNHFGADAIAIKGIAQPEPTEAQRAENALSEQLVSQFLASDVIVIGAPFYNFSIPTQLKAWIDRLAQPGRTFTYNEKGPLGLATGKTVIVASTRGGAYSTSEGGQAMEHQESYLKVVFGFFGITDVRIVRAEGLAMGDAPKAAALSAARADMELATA
# TvarAzoR [4] = target: T4, TvarAzoR (Trichormus variabilis, UniProt Q3M1N6); assay: as above; conditions: 150 uM NADH; 50 uM FMN; 100 mM sodium phosphate pH 6; 25 °C; 30 uM dye
# T4 construct: gene azoR1; codon-optimised gene in pET-24a(+); cell-free synthesis (PUREfrex2.0), unpurified
# T4 sequence (Q3M1N6 1-207): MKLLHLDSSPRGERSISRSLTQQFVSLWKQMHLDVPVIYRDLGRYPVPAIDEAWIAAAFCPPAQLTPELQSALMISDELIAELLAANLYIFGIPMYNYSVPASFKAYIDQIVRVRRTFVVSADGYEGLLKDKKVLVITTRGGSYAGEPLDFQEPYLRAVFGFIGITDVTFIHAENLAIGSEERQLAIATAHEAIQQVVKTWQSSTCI
# RopaAzoR [5] = target: T5, RopaAzoR (Rhodococcus opacus, UniProt A0A1B1KJ01); assay: as above; conditions: 150 uM NADH; 50 uM FMN; 100 mM sodium phosphate pH 6; 25 °C; 30 uM dye
# T5 construct: gene azoR; cell-free synthesis (PUREfrex2.0), unpurified
# T5 sequence (A0A1B1KJ01 1-214): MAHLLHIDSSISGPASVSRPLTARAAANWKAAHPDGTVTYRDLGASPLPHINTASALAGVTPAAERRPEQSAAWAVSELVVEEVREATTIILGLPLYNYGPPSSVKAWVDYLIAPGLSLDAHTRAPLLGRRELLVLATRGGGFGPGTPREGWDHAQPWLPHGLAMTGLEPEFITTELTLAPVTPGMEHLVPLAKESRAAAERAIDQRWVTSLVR
# EfaeAzoR [6] = target: T6, EfaeAzoR (Enterococcus faecalis, UniProt Q831B2); assay: methyl red degradation at […] nm with NADH as electron donor, reconstituted cell-free (PURE) mix; conditions: 30 uM methyl red; 150 uM NADH; 50 uM FMN; 100 mM sodium phosphate pH 6; 25 °C
# T6 construct: gene azoR; codon-optimised gene in pET-24a(+); cell-free synthesis (PUREfrex2.0), unpurified
# T6 sequence (Q831B2 whole entry): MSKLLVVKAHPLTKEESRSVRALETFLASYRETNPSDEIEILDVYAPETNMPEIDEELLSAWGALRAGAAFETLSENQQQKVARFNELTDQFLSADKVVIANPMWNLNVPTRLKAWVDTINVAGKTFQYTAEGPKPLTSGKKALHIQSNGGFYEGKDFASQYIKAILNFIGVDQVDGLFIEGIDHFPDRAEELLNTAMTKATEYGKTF
# EfaeAzoR [7] = target: T6, EfaeAzoR; assay: methyl red degradation at […] nm, reconstituted cell-free (PURE) mix; conditions: 150 uM NADH, NADPH or BNAH; 50 uM FMN; 100 mM sodium phosphate pH 6; 25 °C; 30 uM dye
# RopaAzoR [8] = target: T5, RopaAzoR; assay: as above; conditions: 150 uM NADH; 50 uM FMN; 100 mM sodium phosphate pH 6; 25 °C; 30 uM dye
# PaerAzoR [9] = target: T1, PaerAzoR; assay: as above; conditions: 150 uM BNAH; 50 uM FMN; 100 mM sodium phosphate pH 6; 25 °C; 30 uM dye
# StypAzoR [10] = target: T2, StypAzoR; assay: as above; conditions: 150 uM NADH, NADPH or BNAH; 50 uM FMN; 100 mM sodium phosphate pH 6; 25 °C; 30 uM dye
# TvarAzoR [11] = target: T4, TvarAzoR; assay: as above; conditions: 150 uM NADH, NADPH or BNAH; 50 uM FMN; 100 mM sodium phosphate pH 6; 25 °C; 30 uM dye
# RferAzoR [12] = target: T3, RferAzoR; assay: as above; conditions: 150 uM NADH, NADPH or BNAH; 50 uM FMN; 100 mM sodium phosphate pH 6; 25 °C; 30 uM dye
smiles,measurement,setting,value
"NC(=O)C1=CN(Cc2ccccc2)C=CC1 [BNAH, 1‐benzyl‐1,4‐dihydronicotinamide]","methyl red degradation at 430 nm with BNAH as electron donor, reconstituted cell",PaerAzoR [1],PaerAzoR catalyzed the degradation of methyl red using BNAH as co‐substrate
CC(=O)Nc1ccc(S(=O)(=O)O)c2cc(S(=O)(=O)O)c(N=Nc3ccc(N=Nc4ccc(S(=O)(=O)O)cc4)c4ccc(S(=O)(=O)O)cc34)c(O)c12 [Brilliant Black],"Brilliant Black degradation at 570 nm, reconstituted cell-free (PURE) mix",StypAzoR [2],All five enzymes and RopaAzoR were able to degrade BB.
same,"Brilliant Black degradation at 570 nm, reconstituted cell-free (PURE) mix",RferAzoR [3],All five enzymes and RopaAzoR were able to degrade BB.
same,"Brilliant Black degradation at 570 nm, reconstituted cell-free (PURE) mix",TvarAzoR [4],All five enzymes and RopaAzoR were able to degrade BB.
same,"Brilliant Black degradation at 570 nm, reconstituted cell-free (PURE) mix",RopaAzoR [5],All five enzymes and RopaAzoR were able to degrade BB.
NC(=O)C1=CN([C@@H]2O[C@H](COP(=O)(O)OP(=O)(O)OC[C@H]3O[C@@H](n4cnc5c(N)ncnc54)[C@H](O)[C@@H]3O)[C@@H](O)[C@H]2O)C=CC1 [NADH],"methyl red degradation at 430 nm with NADH as electron donor, reconstituted cell",EfaeAzoR [6],EfaeAzoR seems to have a strong preference for NADH
CN(C)c1ccc(/N=N/c2ccccc2C(=O)O)cc1 [methyl red],"methyl red degradation at 430 nm, reconstituted cell-free (PURE) mix",EfaeAzoR [7],Noteworthy are the very high activities of StypAzoR and EfaeAzoR
same,"methyl red degradation at 430 nm, reconstituted cell-free (PURE) mix",RopaAzoR [8],"active RopaAzoR was synthesized, and substrate degradation was detected in the activity assay"
same,"methyl red degradation at 430 nm, reconstituted cell-free (PURE) mix",PaerAzoR [9],PaerAzoR catalyzed the degradation of methyl red using BNAH as co‐substrate
same,"methyl red degradation at 430 nm, reconstituted cell-free (PURE) mix",StypAzoR [10],all undescribed enzymes catalyzed the degradation of methyl red
same,"methyl red degradation at 430 nm, reconstituted cell-free (PURE) mix",TvarAzoR [11],all undescribed enzymes catalyzed the degradation of methyl red
same,"methyl red degradation at 430 nm, reconstituted cell-free (PURE) mix",RferAzoR [12],all undescribed enzymes catalyzed the degradation of methyl red
